Assay results: PubChem BioAssay AID2060627 (Molecular Pharmacology Branch, DTP, NCI, 2025)
pIC50: −log10 of the molar value.

Tested on: 156681-154-R-J1-PDC complex spheroid viability
Test: Anticancer human tumor 156681-154-R-J1-PDC patient-derived melanoma cell line growth inhibition [CLK]
Conditions: for pIC50: curve of first compound; for viability, T/C: stronger effect = lower value
Source text: A high-throughput screen of multi-cell type tumor spheroids was designed to identify active combinations of […] and targeted small molecules. Complex spheroids include a stromal component modeled by human endothelial cells (HUVEC) and fibroblasts modeled by human mesenchymal stem cells (MSCs). The concentration ranges selected for each drug and investigational agent were based upon clinically achievable concentrations if the clinical Cmax of the agent was known.
Compounds. The drugs and investigational agents: cirtuvivint (SM08502; NSC835563), CC-671 (NSC850746), vemurafenib (NSC761431), tapotoclax (NSC804041), sotorasib (NSC818433), adagrasib (NSC831453), MRTX-1133 (NSC836407), BAY2416964 (NSC825713), copanlisib (NSC816437), inavolisib (NSC800729), abemaciclib (NSC768073), osimertinib (NSC779217), entinostat (NSC756642), eltanexor (KPT-8602, NSC794443), venetoclax (NSC766270), ceralasertib (NSC777638), bortezomib (NSC756655), olaparib (NSC753686), talazoparib (NSC767125), alisertib (NSC759677), peposertib (NSC802822), gemcitabine (NSC613327), 5-fluorouracil (NSC19893), SN-38 (NSC673596), oxaliplatin (NSC266046), paclitaxel (NSC125973), and doxorubicin (NSC123127), were obtained from the National Cancer Institute (NCI) Developmental Therapeutics Program Chemical Repository. The FDA-approved anticancer drug set is available from the Developmental Therapeutics Program at https://dtp.cancer.gov/organization/dscb/obtaining/available plates.htm. […] The stock solutions were prepared in dimethyl sulfoxide (DMSO, Sigma-Aldrich, St. Louis, MO, cat. D2650), except for the platinum complexes which were prepared in saline (Quality Biological, Gaithersburg, MD, cat. 114-055-101), at 800-fold the tested concentration and stored at -70 degrees C prior to their use. All drugs and investigational agents were tested over a range starting from a high concentration at or near the clinical Cmax and decreasing in half-log increments. If the clinical Cmax for an agent had not been determined, the highest concentration tested was 10 microM.
Cell Culture. All cells were maintained in an incubator at 37 degrees C and 5% CO2 with 95% humidity. The PDC lines were cultured according to standard operating procedures established by the NCI PDMR. Briefly, all PDCs were thawed and cultured in Matrigel-coated flasks prepared with a working solution of 1X Ham's F-12 nutrient mix, without supplementation (Invitrogen, Waltham, MA, cat. 11765054), 100 U/mL penicillin-streptomycin (Invitrogen, cat. 15140122), and 2.5% Matrigel (Corning Inc., Corning, NY, cat. 354248) for the first three passages. The 947758-054-R-J2-PDC line was cultured in 6B/Colon 1A media, which includes advanced DMEM/F-12 (Thermo Fisher Scientific, cat. 12634028), 10 mM HEPES (Thermo Fisher Scientific, cat. 15630080), 1X GlutaMAX supplement (Thermo Fisher Scientific, cat. 35050061), 0.1 mg/mL primocin (InvivoGen, cat. ant-pm-2), 10% defined fetal bovine serum, heat inactivated (HyClone Laboratories Inc., cat. SH30070.03HI), 1.25 mM N-Acetyl-L-cysteine (Sigma-Aldrich, cat. A9165), 10 mM nicotinamide (Sigma-Aldrich, cat. N0636), 1X B-27 supplement (Thermo Fisher Scientific, cat. 17504044), 1X N-2 supplement (Thermo Fisher Scientific, cat. 17502048), and 10 microM Y-27632 dihydrochloride (Tocris Bioscience, cat. 1254). The 876862-298-R-J1-PDC was cultured in 6E media, which includes all 6B/Colon 1A media components plus 50% L-WRN conditioned media (ATCC, cat. CRL-3276), 50 ng/mL recombinant human EGF recombinant protein (hEGF; Thermo Fisher Scientific, cat. PHG0311), 10 ng/mL recombinant human fibroblast growth factor 10 (hGFG-10; PeproTech, cat. 100-26), 1 ng/mL recombinant human fibroblast growth factor 2 (hFGF-2; PeproTech, cat. 100-18B), and 1 µM prostaglandin E2 (PGE2; Tocris, cat. 2296). The 227483-062-R1-J1-PDC line was cultured in Panc media, containing all 6E components except hFGF-2, with the addition of 500 nM SB-431542 (Selleckchem, cat. S1067) and 10 nM gastrin (Tocris, cat. 3006). […]

[1] = second compound 0.0316 µM, first compound 0.0316 µM
[2] = second compound 0.0316 µM, first compound 0.1 µM
[3] = second compound 0.0316 µM, first compound 0.316 µM
[4] = second compound 0.0316 µM, first compound 1 µM
[5] = second compound 0.1 µM, first compound 0.0316 µM
[6] = second compound 0.1 µM, first compound 0.1 µM
[7] = second compound 0.1 µM, first compound 0.316 µM
[8] = second compound 0.1 µM, first compound 1 µM
[9] = second compound 0.316 µM, first compound 0.0316 µM
[10] = second compound 0.316 µM, first compound 0.1 µM
[11] = second compound 0.316 µM, first compound 0.316 µM
[12] = second compound 0.316 µM, first compound 1 µM
[13] = second compound 1 µM, first compound 0.0316 µM
[14] = second compound 1 µM, first compound 0.1 µM
[15] = second compound 1 µM, first compound 0.316 µM
[16] = second compound 1 µM, first compound 1 µM
[17] = second compound 3.16 µM, first compound 0.0316 µM
[18] = second compound 3.16 µM, first compound 0.1 µM
[19] = second compound 3.16 µM, first compound 0.316 µM
[20] = second compound 3.16 µM, first compound 1 µM
[21] = second compound 10 µM, first compound 0.0316 µM
[22] = second compound 10 µM, first compound 0.1 µM
[23] = second compound 10 µM, first compound 0.316 µM
[24] = second compound 10 µM, first compound 1 µM
[25] = second compound 0.0316 µM, first compound 0.00316 µM
[26] = second compound 0.0316 µM, first compound 0.01 µM
[27] = second compound 0.1 µM, first compound 0.00316 µM
[28] = second compound 0.1 µM, first compound 0.01 µM
[29] = second compound 0.316 µM, first compound 0.00316 µM
[30] = second compound 0.316 µM, first compound 0.01 µM
[31] = second compound 1 µM, first compound 0.00316 µM
[32] = second compound 1 µM, first compound 0.01 µM
[33] = second compound 3.16 µM, first compound 0.00316 µM
[34] = second compound 3.16 µM, first compound 0.01 µM
[35] = second compound 10 µM, first compound 0.00316 µM
[36] = second compound 10 µM, first compound 0.01 µM
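Further: spheroids exposed to the agents for seven days.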
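Wherever viability, T/C is given: 100% = DMSO vehicle control viability.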

## CC(Nc1ccc2c(c1)OCCn1cc(N3C(=O)OCC3C(F)F)nc1-2)C(N)=O (stereo unspecified) + CN1CCN(c2cc(C(=O)Nc3cc4cc(-c5cnn(C)c5)ccc4cn3)ccn2)CC1
Second compound 0.0316 µM
  pIC50: 6.52
Second compound 0.1 µM
  pIC50: 6.62
Second compound 0.316 µM
  pIC50: > 7.50
Second compound 1 µM
  pIC50: > 7.50
Second compound 3.16 µM
  pIC50: > 7.50
Second compound 10 µM
  pIC50: > 7.50
[1]
  viability, T/C: 85.4%
[2]
  viability, T/C: 67%
[3]
  viability, T/C: 49.4%
[4]
  viability, T/C: 34%
Second compound 0.0316 µM, first compound 3.16 µM
  viability, T/C: 30%
Second compound 0.0316 µM, first compound 10 µM
  viability, T/C: 20%
[5]
  viability, T/C: 73.4%
[6]
  viability, T/C: 65.6%
[7]
  viability, T/C: 43.5%
[8]
  viability, T/C: 29.9%
Second compound 0.1 µM, first compound 3.16 µM
  viability, T/C: 20%
Second compound 0.1 µM, first compound 10 µM
  viability, T/C: 13.7%
[9]
  viability, T/C: 21.1%
[10]
  viability, T/C: 15.7%
[11]
  viability, T/C: 15%
[12]
  viability, T/C: 6.71%
Second compound 0.316 µM, first compound 3.16 µM
  viability, T/C: 4.44%
Second compound 0.316 µM, first compound 10 µM
  viability, T/C: 4.8%
[13]
  viability, T/C: 0.14%
[14]
  viability, T/C: 0.42%
[15]
  viability, T/C: 0.1%
[16]
  viability, T/C: 0.05%
Second compound 1 µM, first compound 3.16 µM
  viability, T/C: 0.4%
Second compound 1 µM, first compound 10 µM
  viability, T/C: 0.2%
[17]
  viability, T/C: 0.05%
[18]
  viability, T/C: 1.73%
[19]
  viability, T/C: 2.06%
[20]
  viability, T/C: 0.08%
Second compound 3.16 µM, first compound 3.16 µM
  viability, T/C: 1.56%
Second compound 3.16 µM, first compound 10 µM
  viability, T/C: 1.84%
[21]
  viability, T/C: 0.11%
[22]
  viability, T/C: 0.1%
[23]
  viability, T/C: 1.26%
[24]
  viability, T/C: 2.64%
Second compound 10 µM, first compound 3.16 µM
  viability, T/C: 2.45%
Second compound 10 µM, first compound 10 µM
  viability, T/C: 1.35%

## CCN1CCN(Cc2ccc(Nc3ncc(F)c(-c4cc(F)c5nc(C)n(C(C)C)c5c4)n3)nc2)CC1 + CN1CCN(c2cc(C(=O)Nc3cc4cc(-c5cnn(C)c5)ccc4cn3)ccn2)CC1
Second compound 0.0316 µM
  pIC50: 6.18
Second compound 0.1 µM
  pIC50: 6.09
Second compound 0.316 µM
  pIC50: > 8.50
Second compound 1 µM
  pIC50: > 8.50
Second compound 3.16 µM
  pIC50: > 8.50
Second compound 10 µM
  pIC50: > 8.50
[25]
  viability, T/C: 97%
[26]
  viability, T/C: 94.9%
[1]
  viability, T/C: 87.5%
[2]
  viability, T/C: 77.6%
[3]
  viability, T/C: 71.8%
[4]
  viability, T/C: 39.1%
[27]
  viability, T/C: 96.2%
[28]
  viability, T/C: 76.2%
[5]
  viability, T/C: 70.6%
[6]
  viability, T/C: 89.9%
[7]
  viability, T/C: 67.2%
[8]
  viability, T/C: 46.1%
[29]
  viability, T/C: 21.6%
[30]
  viability, T/C: 21.1%
[9]
  viability, T/C: 17.8%
[10]
  viability, T/C: 23.1%
[11]
  viability, T/C: 18.7%
[12]
  viability, T/C: 9.12%
[31]
  viability, T/C: 0.15%
[32]
  viability, T/C: 0.55%
[13]
  viability, T/C: 3.58%
[14]
  viability, T/C: 0.43%
[15]
  viability, T/C: 1.38%
[16]
  viability, T/C: 0.47%
[33]
  viability, T/C: 0.8%
[34]
  viability, T/C: 1.88%
[17]
  viability, T/C: 0.12%
[18]
  viability, T/C: 1.66%
[19]
  viability, T/C: 2.74%
[20]
  viability, T/C: 1.56%
[35]
  viability, T/C: 0.1%
[36]
  viability, T/C: 0.55%
[21]
  viability, T/C: 0.69%
[22]
  viability, T/C: 0.18%
[23]
  viability, T/C: 0.5%
[24]
  viability, T/C: 3.25%

## COc1c(OCCCN2CCOCC2)ccc2c3n(c(=NC(=O)c4cnc(N)nc4)nc12)CCN3 + CN1CCN(c2cc(C(=O)Nc3cc4cc(-c5cnn(C)c5)ccc4cn3)ccn2)CC1
Second compound 0.0316 µM
  pIC50: 7.80
Second compound 0.1 µM
  pIC50: 7.89
Second compound 0.316 µM
  pIC50: > 8.50
Second compound 1 µM
  pIC50: > 8.50
Second compound 3.16 µM
  pIC50: > 8.50
Second compound 10 µM
  pIC50: > 8.50
[25]
  viability, T/C: 76.1%
[26]
  viability, T/C: 58.8%
[1]
  viability, T/C: 36.8%
[2]
  viability, T/C: 12.7%
[3]
  viability, T/C: 2.94%
[4]
  viability, T/C: 0.44%
[27]
  viability, T/C: 76.2%
[28]
  viability, T/C: 55.5%
[5]
  viability, T/C: 29.6%
[6]
  viability, T/C: 10.3%
[7]
  viability, T/C: 1.15%
[8]
  viability, T/C: 0.6%
[29]
  viability, T/C: 18.1%
[30]
  viability, T/C: 15%
[9]
  viability, T/C: 6.26%
[10]
  viability, T/C: 2.42%
[11]
  viability, T/C: 1.79%
[12]
  viability, T/C: 0.42%
[31]
  viability, T/C: 0.13%
[32]
  viability, T/C: 0.95%
[13]
  viability, T/C: 0.12%
[14]
  viability, T/C: 0.27%
[15]
  viability, T/C: 0.51%
[16]
  viability, T/C: 0.4%
[33]
  viability, T/C: 0.05%
[34]
  viability, T/C: 0.16%
[17]
  viability, T/C: 0.12%
[18]
  viability, T/C: 1.29%
[19]
  viability, T/C: 1.19%
[20]
  viability, T/C: 2.81%
[35]
  viability, T/C: 0.04%
[36]
  viability, T/C: 1.39%
[21]
  viability, T/C: 2.94%
[22]
  viability, T/C: 0.1%
[23]
  viability, T/C: 0.81%
[24]
  viability, T/C: 0.71%
